Laboratory results published in patent US5364777A, “Method of improving lipase activity using noble gases” (American Air Liquide, priority 1992, dated 1994).

Legend:
[1] = system: triacylglycerol lipase EC 3.1.1.3; assay: Lipase L-1754 hydrolysis of p-nitrophenyl caprate, butyrate, caproate under gaseous atmospheres (400 nm); assay type: biochemical, Candida cylindracea; settings: for Maximum enhancement of lipase activity, PNP-Caproate: substrate PNP-Caproate; for Maximum inhibition of lipase activity, PNP-Butyrate: substrate PNP-Butyrate, 10° C.
Method: FIGS. 4-6 show a typical and similar enzyme assay carried out on the same enzyme using PNP-butyrate showing inhibition of activity at 10° C. 25° C. and 35° C., respectively. Significant depression in rate is noted.
(§1) Lipase catalysis of lipid conversion was tested using triglycerides, paranitrophenyl (PNP) acetate, PNP-butyrate, PNP-caprate, PNP-caprylate, PNP-caproate, olive oil, standard lipids and triglycerides, and other lipids. […]
(§2) Testing Of An Adequate Procedure
(§3) To Follow Lipase L-1754/p-Nitrophenyl
caprate N-0252, p-Nitrophenyl butyrate N-9876, p-Nitrophenyl
caproate N-0502, p-Nitrophenyl caprylate N-0752
PURPOSE: Testing protocol to follow Lipase L-17,54 using p-
ENZYME: Lipase (Sigma No. L-1754)
Type VII from Candida cylindracea w/ 30% lactose
p-Nitrophenyl caprate (Sigma No. N-02521)
p-Nitrophenyl butyrate (Sigma No. N-9876)
p-Nitrophenyl caproate (Sigma No. N-0502)
Results: We will do gas runs using p-nitrophenyl caproate and
p-nitrophenyl caprate as substrates. These will be compared to
p-nitrophenyl caproate N-0502
p-nitrophenyl caprate N-0252

[2] = system: triacylglycerol lipase EC 3.1.1.3; assay: Lipase hydrolysis of p-nitrophenyl acetate under gaseous atmospheres (spectrophotometric, 400 nm); assay type: biochemical, Rhizonus arrhizus; settings: substrate PNP-Acetate, +25° C.
Method: FIGS. 1-3 show a typical enzyme assay carried out at 10, 25 and 35 degrees °C. for triacylglycerol lipase catalysts of paranitrophenol acetate hydrolysis.
as §1, §2, §3
Effect of Air, Ne, Ar, Kr, Xe, N2 and O2 on
Lipase L-1754 using p-nitrophenyl acetate
ENZYME: Lipase (Sigma No. L-4384)
Type XI from Rhizonus arrhizus
p-Nitrophenyl acetate (Sigma No. N-8130)
8 DIFFERENT GASEOUS ATMOSPHERES:
3 DIFFERENT TEMPERATURES:
R = 2.0 ml Soln D + 0.5 ml Soln A
fill the cuvettes with 2.0 ml of (p-nitrophenyl
Fill 8 serum vials with 5.0 ml of (lipase
Bubble 10x10cc of the appropriate gas in T1G1 ... 5
Bubble 10xl0cc of the appropriate gas in G1 ... 5
Remove G1 ... 5 serum vials from fridge. Sample soln

Structure (SMILES)	Maximum enhancement of lipase activity, PNP-Caprate ([1]; substrate PNP-Caprate, 35° C.)	Maximum enhancement of lipase activity, PNP-Caproate ([1]; 25° C.)	Maximum enhancement of lipase activity, PNP-Acetate [2]	Maximum inhibition of lipase activity, PNP-Butyrate [1] [%]	Maximum enhancement of lipase activity, PNP-Caproate ([1]; +35 degrees)
[Ar] [Ar, argon]	+14%	+37%			
[Kr] [Kr, krypton]			+11%	-25	
[Xe] [Xe, xenon]				26	+23%
